Legend:
[1] = molecular target: Serine/threonine-protein kinase Nek5 (Homo sapiens) (UniProt Q6P3R8); conditions: Compound concentration 1000.0 nM
[2] = molecular target: Tyrosine-protein kinase ITK/TSK (Homo sapiens) (UniProt Q08881); conditions: Compound concentration 1000.0 nM
[3] = molecular target: Ephrin type-A receptor 2 (Homo sapiens) (UniProt P29317); conditions: Compound concentration 1000.0 nM
[4] = molecular target: Cyclin-dependent kinase 2 (Homo sapiens) (UniProt P24941); conditions: Compound concentration 1000.0 nM
[5] = molecular target: Serine/threonine-protein kinase Nek6 (Homo sapiens) (UniProt Q9HC98); conditions: Compound concentration 1000.0 nM
[6] = molecular target: Homeodomain-interacting protein kinase 4 (Homo sapiens) (UniProt Q8NE63); conditions: Compound concentration 1000.0 nM
[7] = molecular target: Phosphatidylinositol 4-phosphate 5-kinase type-1 alpha (Homo sapiens) (UniProt Q99755); conditions: Compound concentration 1000.0 nM
[8] = test system: Phosphatidylinositol 4,5-bisphosphate 3-kinase catalytic subunit alpha isoform (Homo sapiens), P42336 [I800L]; conditions: Compound concentration 1000.0 nM
[9] = test system: Proto-oncogene tyrosine-protein kinase receptor Ret (Homo sapiens), P07949 [V804M]; conditions: Compound concentration 1000.0 nM
[10] = molecular target: BMP-2-inducible protein kinase (Homo sapiens) (UniProt Q9NSY1); conditions: Compound concentration 1000.0 nM
Chain of BMP-2-inducible protein kinase (Homo sapiens) (Q9NSY1 whole entry, looked up): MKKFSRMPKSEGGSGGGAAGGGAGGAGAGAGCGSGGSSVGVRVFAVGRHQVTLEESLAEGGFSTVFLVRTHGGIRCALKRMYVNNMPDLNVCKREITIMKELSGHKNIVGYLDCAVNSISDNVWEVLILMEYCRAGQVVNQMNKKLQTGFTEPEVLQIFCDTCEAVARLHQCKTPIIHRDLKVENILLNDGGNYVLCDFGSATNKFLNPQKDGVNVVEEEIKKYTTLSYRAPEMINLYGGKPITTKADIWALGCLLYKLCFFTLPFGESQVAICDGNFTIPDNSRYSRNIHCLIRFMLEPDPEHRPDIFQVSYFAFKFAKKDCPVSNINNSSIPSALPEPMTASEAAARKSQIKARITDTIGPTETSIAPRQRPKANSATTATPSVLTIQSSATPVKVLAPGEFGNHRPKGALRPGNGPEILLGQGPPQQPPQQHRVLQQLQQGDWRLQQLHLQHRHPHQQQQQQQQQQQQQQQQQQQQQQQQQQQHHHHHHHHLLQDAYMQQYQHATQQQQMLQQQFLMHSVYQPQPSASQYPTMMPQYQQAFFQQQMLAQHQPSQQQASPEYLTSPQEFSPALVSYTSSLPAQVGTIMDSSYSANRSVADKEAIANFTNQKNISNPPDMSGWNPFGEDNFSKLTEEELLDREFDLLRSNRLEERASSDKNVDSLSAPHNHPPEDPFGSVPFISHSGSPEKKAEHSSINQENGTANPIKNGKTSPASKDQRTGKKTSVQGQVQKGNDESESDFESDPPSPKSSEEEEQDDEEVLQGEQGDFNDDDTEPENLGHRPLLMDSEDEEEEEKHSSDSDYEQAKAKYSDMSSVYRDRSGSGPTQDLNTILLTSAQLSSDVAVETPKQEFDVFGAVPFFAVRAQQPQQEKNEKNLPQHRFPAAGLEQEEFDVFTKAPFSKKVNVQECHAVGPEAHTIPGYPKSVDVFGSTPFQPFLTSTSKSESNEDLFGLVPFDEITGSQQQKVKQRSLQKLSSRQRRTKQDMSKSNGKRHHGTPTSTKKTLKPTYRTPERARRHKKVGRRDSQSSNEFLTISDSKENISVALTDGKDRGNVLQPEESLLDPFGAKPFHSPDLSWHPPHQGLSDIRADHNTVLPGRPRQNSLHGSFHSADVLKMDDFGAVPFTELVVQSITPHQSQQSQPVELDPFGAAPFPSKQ

[11] = molecular target: 1-phosphatidylinositol 3-phosphate 5-kinase (Homo sapiens) (UniProt Q9Y2I7); conditions: Compound concentration 1000.0 nM
[12] = molecular target: Dual specificity mitogen-activated protein kinase kinase 2 (Homo sapiens) (UniProt P36507); conditions: Compound concentration 1000.0 nM
[13] = molecular target: Ephrin type-B receptor 1 (Homo sapiens) (UniProt P54762); conditions: Compound concentration 1000.0 nM
[14] = molecular target: Non-receptor tyrosine-protein kinase TNK1 (Homo sapiens) (UniProt Q13470); conditions: Compound concentration 1000.0 nM
[15] = molecular target: MAP kinase-interacting serine/threonine-protein kinase 2 (Homo sapiens) (UniProt Q9HBH9); conditions: Compound concentration 1000.0 nM
Chain of MAP kinase-interacting serine/threonine-protein kinase 2 (Homo sapiens) (Q9HBH9 whole entry, looked up): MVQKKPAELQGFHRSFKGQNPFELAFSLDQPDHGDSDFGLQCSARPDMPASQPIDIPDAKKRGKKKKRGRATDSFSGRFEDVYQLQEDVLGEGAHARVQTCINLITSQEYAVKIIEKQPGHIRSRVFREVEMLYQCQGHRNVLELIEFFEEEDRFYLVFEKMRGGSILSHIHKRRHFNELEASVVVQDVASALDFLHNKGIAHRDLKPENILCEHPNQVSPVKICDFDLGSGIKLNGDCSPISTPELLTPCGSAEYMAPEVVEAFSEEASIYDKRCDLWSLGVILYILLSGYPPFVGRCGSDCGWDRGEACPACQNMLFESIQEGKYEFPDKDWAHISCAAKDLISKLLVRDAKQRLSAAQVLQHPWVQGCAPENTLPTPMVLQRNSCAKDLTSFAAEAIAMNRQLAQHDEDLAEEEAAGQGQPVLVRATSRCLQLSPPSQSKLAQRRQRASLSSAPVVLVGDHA

[16] = molecular target: Phosphatidylinositol 4-kinase beta (Homo sapiens) (UniProt Q9UBF8); conditions: Compound concentration 1000.0 nM
[17] = molecular target: Leucine-rich repeat serine/threonine-protein kinase 2 (Homo sapiens) (UniProt Q5S007); conditions: Compound concentration 1000.0 nM
[18] = molecular target: Cyclin-dependent kinase 9 (Homo sapiens) (UniProt P50750); conditions: Compound concentration 1000.0 nM
[19] = molecular target: Serine/threonine-protein kinase Sgk2 (Homo sapiens) (UniProt Q9HBY8); conditions: Compound concentration 1000.0 nM
[20] = molecular target: Serine/threonine-protein kinase PAK 1 (Homo sapiens) (UniProt Q13153); conditions: Compound concentration 1000.0 nM
Chain of Serine/threonine-protein kinase PAK 1 (Homo sapiens) (Q13153 whole entry): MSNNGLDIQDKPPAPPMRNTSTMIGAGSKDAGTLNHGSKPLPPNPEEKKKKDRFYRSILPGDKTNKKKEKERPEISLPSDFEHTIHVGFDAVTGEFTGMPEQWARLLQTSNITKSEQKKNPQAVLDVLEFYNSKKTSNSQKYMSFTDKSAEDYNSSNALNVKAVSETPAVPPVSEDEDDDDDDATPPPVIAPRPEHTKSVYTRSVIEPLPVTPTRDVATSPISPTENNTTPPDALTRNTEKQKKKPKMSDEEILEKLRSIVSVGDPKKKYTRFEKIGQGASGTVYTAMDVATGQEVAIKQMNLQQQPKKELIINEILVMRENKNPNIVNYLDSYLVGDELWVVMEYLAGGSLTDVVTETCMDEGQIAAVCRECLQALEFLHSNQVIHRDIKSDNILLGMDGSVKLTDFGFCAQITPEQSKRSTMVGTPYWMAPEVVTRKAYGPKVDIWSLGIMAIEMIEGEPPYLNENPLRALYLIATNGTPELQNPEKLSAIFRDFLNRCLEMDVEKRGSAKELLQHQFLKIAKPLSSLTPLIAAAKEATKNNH

[21] = molecular target: Aurora kinase A (Homo sapiens) (UniProt O14965); conditions: Compound concentration 1000.0 nM
[22] = molecular target: Tyrosine-protein kinase JAK1 (Homo sapiens) (UniProt P23458); conditions: Compound concentration 1000.0 nM
[23] = molecular target: Mitogen-activated protein kinase 15 (Homo sapiens) (UniProt Q8TD08); conditions: Compound concentration 1000.0 nM
[24] = molecular target: Mitogen-activated protein kinase 9 (Homo sapiens) (UniProt P45984); conditions: Compound concentration 1000.0 nM
[25] = test system: Serine/threonine-protein kinase B-raf (Homo sapiens), P15056 [V600E]; conditions: Compound concentration 1000.0 nM
[26] = molecular target: Phosphorylase b kinase gamma catalytic chain, skeletal muscle/heart isoform (Homo sapiens) (UniProt Q16816); conditions: Compound concentration 1000.0 nM
[27] = test system: Fibroblast growth factor receptor 3 (Homo sapiens), P22607 [G697C]; conditions: Compound concentration 1000.0 nM
[28] = molecular target: Calcium/calmodulin-dependent protein kinase type 1B (Homo sapiens) (UniProt Q6P2M8); conditions: Compound concentration 1000.0 nM
Chain of Calcium/calmodulin-dependent protein kinase type 1B (Homo sapiens) (Q6P2M8 whole entry): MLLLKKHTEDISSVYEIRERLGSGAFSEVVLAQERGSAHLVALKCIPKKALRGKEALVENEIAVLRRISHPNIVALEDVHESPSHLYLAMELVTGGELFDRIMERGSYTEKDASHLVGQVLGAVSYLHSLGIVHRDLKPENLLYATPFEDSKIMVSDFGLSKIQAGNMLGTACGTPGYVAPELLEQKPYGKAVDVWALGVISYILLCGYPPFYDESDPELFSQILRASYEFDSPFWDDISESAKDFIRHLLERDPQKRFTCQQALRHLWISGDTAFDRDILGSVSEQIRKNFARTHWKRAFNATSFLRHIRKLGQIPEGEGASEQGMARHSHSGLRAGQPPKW

[29] = molecular target: MAP kinase-activated protein kinase 5 (Homo sapiens) (UniProt Q8IW41); conditions: Compound concentration 1000.0 nM
[30] = test system: Epidermal growth factor receptor (Homo sapiens), P00533 [UNDEFINED MUTATION]; conditions: Compound concentration 1000.0 nM
Chain of Epidermal growth factor receptor (Homo sapiens), P00533 [UNDEFINED MUTATION] (P00533 whole entry, looked up, change not shown): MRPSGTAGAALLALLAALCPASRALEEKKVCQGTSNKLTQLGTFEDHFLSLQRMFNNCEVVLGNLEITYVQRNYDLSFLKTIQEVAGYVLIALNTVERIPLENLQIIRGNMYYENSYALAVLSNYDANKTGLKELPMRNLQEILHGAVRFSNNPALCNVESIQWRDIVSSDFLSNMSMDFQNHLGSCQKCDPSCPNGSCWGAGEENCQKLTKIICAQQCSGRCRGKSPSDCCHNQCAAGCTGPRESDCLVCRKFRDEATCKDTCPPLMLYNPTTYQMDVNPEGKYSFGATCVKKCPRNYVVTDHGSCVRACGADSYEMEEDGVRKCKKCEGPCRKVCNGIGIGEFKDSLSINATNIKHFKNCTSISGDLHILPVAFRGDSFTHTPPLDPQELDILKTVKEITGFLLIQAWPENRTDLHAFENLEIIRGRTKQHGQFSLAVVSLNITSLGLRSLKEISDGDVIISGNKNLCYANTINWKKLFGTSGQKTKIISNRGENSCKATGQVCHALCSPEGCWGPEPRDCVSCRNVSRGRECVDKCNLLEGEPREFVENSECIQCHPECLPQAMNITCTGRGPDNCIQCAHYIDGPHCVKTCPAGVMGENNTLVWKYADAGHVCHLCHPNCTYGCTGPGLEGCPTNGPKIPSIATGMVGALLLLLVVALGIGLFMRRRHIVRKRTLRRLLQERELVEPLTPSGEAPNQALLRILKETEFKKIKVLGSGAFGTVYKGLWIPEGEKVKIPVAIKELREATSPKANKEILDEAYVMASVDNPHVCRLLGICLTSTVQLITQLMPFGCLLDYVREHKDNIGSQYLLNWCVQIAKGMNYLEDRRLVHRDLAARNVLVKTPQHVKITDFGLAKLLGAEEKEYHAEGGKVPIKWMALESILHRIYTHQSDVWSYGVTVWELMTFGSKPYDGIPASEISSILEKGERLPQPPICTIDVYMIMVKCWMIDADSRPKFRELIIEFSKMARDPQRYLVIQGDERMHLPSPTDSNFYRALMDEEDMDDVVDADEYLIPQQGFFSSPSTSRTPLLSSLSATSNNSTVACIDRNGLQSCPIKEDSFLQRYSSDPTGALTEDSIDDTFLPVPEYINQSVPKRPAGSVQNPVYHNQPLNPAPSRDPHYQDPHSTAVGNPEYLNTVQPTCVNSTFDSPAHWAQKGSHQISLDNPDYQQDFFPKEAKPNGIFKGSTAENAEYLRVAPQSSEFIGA

[31] = molecular target: Death-associated protein kinase 3 (Homo sapiens) (UniProt O43293); conditions: Compound concentration 1000.0 nM
[32] = molecular target: T1, D(4) dopamine receptor (Homo sapiens) (UniProt P21917); conditions: Compound concentration 10.0 uM
T1 sequence (whole entry): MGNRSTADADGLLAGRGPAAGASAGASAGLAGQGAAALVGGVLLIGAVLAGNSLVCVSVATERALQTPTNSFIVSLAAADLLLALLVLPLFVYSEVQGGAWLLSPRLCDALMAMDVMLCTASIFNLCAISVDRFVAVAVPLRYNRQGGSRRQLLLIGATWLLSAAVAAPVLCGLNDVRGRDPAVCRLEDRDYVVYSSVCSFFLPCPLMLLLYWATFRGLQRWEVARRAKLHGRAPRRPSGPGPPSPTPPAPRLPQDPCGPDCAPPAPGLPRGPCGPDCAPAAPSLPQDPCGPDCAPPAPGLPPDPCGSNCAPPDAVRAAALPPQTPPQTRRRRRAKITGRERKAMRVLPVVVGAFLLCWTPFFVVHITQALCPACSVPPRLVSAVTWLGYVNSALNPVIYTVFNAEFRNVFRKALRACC

[33] = molecular target: Ephrin type-B receptor 2 (Homo sapiens) (UniProt P29323); conditions: Compound concentration 1000.0 nM
[34] = molecular target: Discoidin domain-containing receptor 2 (Homo sapiens) (UniProt Q16832); conditions: Compound concentration 1000.0 nM
[35] = molecular target: Calcium/calmodulin-dependent protein kinase type II subunit delta (Homo sapiens) (UniProt Q13557); conditions: Compound concentration 1000.0 nM
Chain of Calcium/calmodulin-dependent protein kinase type II subunit delta (Homo sapiens) (Q13557 whole entry): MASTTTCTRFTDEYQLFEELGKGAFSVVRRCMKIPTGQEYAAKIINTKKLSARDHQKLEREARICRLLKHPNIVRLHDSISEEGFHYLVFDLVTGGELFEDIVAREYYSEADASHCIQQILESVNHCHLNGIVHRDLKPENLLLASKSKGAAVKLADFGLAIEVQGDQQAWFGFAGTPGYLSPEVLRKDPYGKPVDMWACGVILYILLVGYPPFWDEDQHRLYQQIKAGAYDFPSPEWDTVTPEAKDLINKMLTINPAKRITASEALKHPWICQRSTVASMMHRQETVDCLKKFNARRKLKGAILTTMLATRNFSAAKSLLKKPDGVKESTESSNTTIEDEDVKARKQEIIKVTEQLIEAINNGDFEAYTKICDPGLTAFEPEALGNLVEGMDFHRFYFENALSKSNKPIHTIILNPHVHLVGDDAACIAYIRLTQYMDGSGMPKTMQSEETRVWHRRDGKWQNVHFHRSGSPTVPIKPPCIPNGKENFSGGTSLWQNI

[36] = molecular target: Ephrin type-A receptor 7 (Homo sapiens) (UniProt Q15375); conditions: Compound concentration 1000.0 nM
[37] = molecular target: Serine/threonine-protein kinase 32B (Homo sapiens) (UniProt Q9NY57); conditions: Compound concentration 1000.0 nM
[38] = molecular target: Serine/threonine-protein kinase 33 (Homo sapiens) (UniProt Q9BYT3); conditions: Compound concentration 1000.0 nM
[39] = test system: Receptor-type tyrosine-protein kinase FLT3 (Homo sapiens), P36888 [D835Y]; conditions: Compound concentration 1000.0 nM

Chain of Tyrosine-protein kinase ITK/TSK (Homo sapiens) (Q08881 whole entry): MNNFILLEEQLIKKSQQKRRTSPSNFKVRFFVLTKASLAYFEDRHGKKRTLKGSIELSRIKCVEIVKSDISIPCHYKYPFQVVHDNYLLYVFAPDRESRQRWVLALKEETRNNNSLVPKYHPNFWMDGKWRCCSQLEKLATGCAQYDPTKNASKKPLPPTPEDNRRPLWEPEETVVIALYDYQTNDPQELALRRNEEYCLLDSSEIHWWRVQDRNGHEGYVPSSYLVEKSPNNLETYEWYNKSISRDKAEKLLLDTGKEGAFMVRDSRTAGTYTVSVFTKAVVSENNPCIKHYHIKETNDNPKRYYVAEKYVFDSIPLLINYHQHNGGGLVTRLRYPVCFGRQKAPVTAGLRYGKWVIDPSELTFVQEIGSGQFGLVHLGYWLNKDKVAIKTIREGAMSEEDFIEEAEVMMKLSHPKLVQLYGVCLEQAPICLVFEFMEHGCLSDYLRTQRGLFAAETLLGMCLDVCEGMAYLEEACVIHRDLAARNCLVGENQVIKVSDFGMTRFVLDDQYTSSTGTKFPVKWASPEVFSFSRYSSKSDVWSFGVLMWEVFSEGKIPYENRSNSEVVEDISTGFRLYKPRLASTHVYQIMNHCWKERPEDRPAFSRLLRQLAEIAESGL

N#CC1(c2ccccn2)CCN(Cc2cc(C(=O)O)c(=O)n3ccccc23)CC1 [MSD-M1PAM]
inactive: residual activity [1] 100% | residual activity [2] 100% | residual activity [3] 83% | residual activity [4] 100% | residual activity [5] 100% | residual activity [6] 95% | residual activity [7] 100% | residual activity [8] 90% | residual activity [9] 92% | residual activity [10] 95% | residual activity [11] 97% | residual activity [12] 100% | residual activity [13] 100% | residual activity [14] 93% | residual activity [15] 85% | residual activity [16] 74% | residual activity [17] 65% | residual activity [18] 99% | residual activity [19] 86% | residual activity [20] 86% | residual activity [21] 100% | residual activity [22] 84% | residual activity [23] 100% | residual activity [24] 83% | residual activity [25] 100% | residual activity [26] 100% | residual activity [27] 100% | residual activity [28] 100% | residual activity [29] 56% | residual activity [30] 97% | residual activity [31] 95% | inhibition [32] -8.33% | residual activity [33] 100% | residual activity [34] 100% | residual activity [35] 100% | residual activity [36] 100% | residual activity [37] 100% | residual activity [38] 56% | residual activity [39] 95%

N#CC1(c2ccccn2)CCN(Cc2cc(C(=O)N3CCCC3)c(=O)n3ccccc23)CC1
inactive: residual activity [1] 82% | residual activity [2] 95% | residual activity [3] 86% | residual activity [4] 86% | residual activity [5] 100% | residual activity [6] 67% | residual activity [7] 100% | residual activity [8] 72% | residual activity [9] 95% | residual activity [10] 92% | residual activity [11] 76% | residual activity [12] 91% | residual activity [13] 91% | residual activity [14] 72% | residual activity [15] 96% | residual activity [16] 100% | residual activity [17] 100% | residual activity [18] 88% | residual activity [19] 100% | residual activity [20] 100% | residual activity [21] 90% | residual activity [22] 100% | residual activity [23] 92% | residual activity [24] 97% | residual activity [25] 99% | residual activity [26] 100% | residual activity [27] 98% | residual activity [28] 90% | residual activity [29] 100% | residual activity [30] 77% | residual activity [31] 86% | inhibition [32] -8.64% | residual activity [33] 77% | residual activity [34] 100% | residual activity [35] 97% | residual activity [36] 100% | residual activity [37] 100% | residual activity [38] 62% | residual activity [39] 71%

From ChEMBL document CHEMBL4507295 (2021)
